{"source": "patent US7977375B2", "about": "“Antibiotic and method of production thereof” (Helmholtz-Zentrum Für Infektionsforschung GmbH, priority 2004, dated 2011)", "key": {"[1]": {"system": "MRSA 2 (methicillin-resistant S. aureus, clinical isolate)", "experiment": "agar diffusion method, inhibition zone", "assay_type": "cell-based, Staphylococcus aureus", "settings": "MRSA 2, MH agar, 18 hours at 37° C., per disk 10 μl crude extract, 50 μg macrolactin, 78 μg erythromycin, 30 μg vancomycin, 10 μg ampicillin", "experimental": "(§1) The agar diffusion method employing Mueller-Hinton (MH) agar (Difco Laboratories) was used to determine effectiveness against bacteria and yeasts. Sterile paper disks (Schleicher & Schüell, Germany) were seeded with 10 μl crude extract or with a solution of purified macrolactin (final compound concentration on the disk 50 μg) and then placed on the surface of MH-agar plates that had been seeded beforehand with a suspension of overnight culture of the test microorganisms at a concentration of 10^5 cells/ml."}, "[2]": {"system": "MRSA 3 (methicillin-resistant S. aureus, clinical isolate)", "experiment": "agar diffusion method, inhibition zone", "assay_type": "cell-based, Staphylococcus aureus", "settings": "MRSA 3, MH agar, 18 hours at 37° C., per disk 10 μl crude extract, 50 μg macrolactin, 78 μg erythromycin, 30 μg vancomycin, 10 μg ampicillin", "experimental": "as §1"}, "[3]": {"system": "S. aureus # (own collection, methicillin-sensitive control strain)", "experiment": "agar diffusion method, inhibition zone", "assay_type": "cell-based, Staphylococcus aureus", "settings": "S. aureus # own collection, MH agar, 18 hours at 37° C., per disk 10 μl crude extract, 50 μg macrolactin, 78 μg erythromycin, 30 μg vancomycin, 10 μg ampicillin", "experimental": "as §1"}, "[4]": {"system": "S. aureus DSMZ 1104", "experiment": "agar diffusion method, inhibition zone", "assay_type": "cell-based, Staphylococcus aureus", "settings": "S. aureus DSMZ 1104, MH agar, 18 hours at 37° C., per disk 10 μl crude extract, 50 μg macrolactin, 78 μg erythromycin, 30 μg vancomycin, 10 μg ampicillin", "experimental": "as §1"}, "[5]": {"system": "E. faecalis ATCC 29212", "experiment": "agar diffusion method, inhibition zone", "assay_type": "cell-based, Enterococcus faecalis", "settings": "E. faecalis ATCC 29212, MH agar, 18 hours at 37° C., per disk 10 μl crude extract, 50 μg macrolactin, 78 μg erythromycin, 30 μg vancomycin, 10 μg ampicillin", "experimental": "as §1"}, "[6]": {"system": "E. faecalis VRAS E305", "experiment": "agar diffusion method, inhibition zone", "assay_type": "cell-based, Enterococcus faecalis", "settings": "E. faecalis VRAS E305, MH agar, 18 hours at 37° C., per disk 10 μl crude extract, 50 μg macrolactin, 78 μg erythromycin, 30 μg vancomycin, 10 μg ampicillin", "experimental": "as §1"}, "[7]": {"system": "E. faecium VRAR E315", "experiment": "agar diffusion method, inhibition zone", "assay_type": "cell-based, Enterococcus faecium", "settings": "E. faecium VRAR E315, MH agar, 18 hours at 37° C., per disk 10 μl crude extract, 50 μg macrolactin, 78 μg erythromycin, 30 μg vancomycin, 10 μg ampicillin", "experimental": "as §1"}, "[8]": {"system": "B. cepacia SCV 141", "experiment": "agar diffusion method, inhibition zone", "assay_type": "cell-based, Burkholderia cepacia", "settings": "18 hours at 37° C., per disk 10 μl crude extract, 50 μg macrolactin, 78 μg erythromycin, 10 μg ampicillin; for Inhibition zone: MH agar", "experimental": "as §1\nThe B. cepacia strain used, which is a clinical isolate from a cystic fibrosis patient, forms small colonies (SCV 141)."}, "[9]": {"system": "L929 mouse fibroblast cells", "experiment": "inhibition of proliferation, CyQUANT cell proliferation test", "assay_type": "cell-based", "settings": "5 days", "experimental": "The cytotoxicity of 7-O-malonyl macrolactin A was compared to that of 7-O-succinyl macrolactin A and macrolactin A in vitro with respect to the inhibition of the proliferation of L929 mouse fibroblast cells or the human epithelial cell line HeLa.\nFor the cell culture, the HeLa cells were cultivated in low-glucose DMEM medium (Gibco), and the L929 cells in high-glucose DMEM medium. Both were supplemented with 10% by volume foetal calf serum (Gibco) at 37° C. in an atmosphere containing 5% CO2. The cells were extracted from stock cultures by means of trypsinization with EDTA (HeLa) or without EDTA (L929), then counted and diluted to 2×10^5 cells/ml. For the tests, microtitre plates (Nunc.) comprising 96 depressions were plated out in serial dilution without or in the presence of the test compounds or methanol. Determination of morphological alterations of the cells was carried out by means of phase contrast microscopy after 1, 2 and 5 days incubation.\nAfter 5 days cultivation, cell counts were determined by the CyQUANT cell proliferation test (Molecular Probes), which is a highly sensitive microtitre plate test based on fluorescence. The test employs the dye CyQUANT, which, by binding to cellular nucleic acids, enhances fluorescence, which can then be measured by fluorescein excitation. The emission of fluorescence by the dye-nucleic acid complex correlated linearly with the cell count. For test purposes, the residue was carefully removed after 5 days incubation, the cells washed with PBS (phosphate buffered saline solution), the buffer removed and the cells frozen at −80° C. For the test, the cells were thawed at ambient temperature and lysated in a buffered solution containing the dye CyQUANT, in accordance with manufacturer's instructions. Fluorescence was measured by means of a fluormetric microtitre-plate reader (Titertex Fluorskan II) (excitation at 480 nm, emission at 520 nm). The […] were used to calculate the percentage of cellular proliferation in medium both alone and in the presence of serial dilutions of methanol and the macrolactin compounds. […] Proliferation was measured by means of the fluorescence-based test CyQUANT for determining viable cell counts. Table 5 illustrates the relative inhibition of proliferation as compared to a control culture comprising fresh medium without the addition of a macrolactin."}, "[10]": {"system": "S. aureus # (non-methicillin-resistant reference strain)", "experiment": "MIC / MBC in liquid culture", "assay_type": "cell-based, Staphylococcus aureus", "settings": "Staphylococcus aureus; S. aureus #; read-out: MIC (minimal inhibitory concentration)"}, "[11]": {"system": "MRSA 2", "experiment": "MIC / MBC in liquid culture", "assay_type": "cell-based, Staphylococcus aureus", "settings": "Staphylococcus aureus; MRSA 2; read-out: MIC (minimal inhibitory concentration)"}, "[12]": {"system": "MRSA 3", "experiment": "MIC / MBC in liquid culture", "assay_type": "cell-based, Staphylococcus aureus", "settings": "Staphylococcus aureus; MRSA 3; read-out: MIC (minimal inhibitory concentration)"}, "[13]": {"system": "E. faecalis ATCC 29212", "experiment": "MIC / MBC in liquid culture", "assay_type": "cell-based, Enterococcus faecalis", "settings": "Enterococcus faecalis, ATCC29212, E. faecalis ATCC 29212; read-out: MIC (minimal inhibitory concentration)"}, "[14]": {"system": "E. faecalis VRAS E305", "experiment": "MIC / MBC in liquid culture", "assay_type": "cell-based, Enterococcus faecalis", "settings": "Enterococcus faecalis, VRASE305; E. faecalis VRAS E305; read-out: MIC (minimal inhibitory concentration)"}, "[15]": {"system": "E. faecium VRAR E315", "experiment": "MIC / MBC in liquid culture", "assay_type": "cell-based, Enterococcus faecium", "settings": "Enterococcus faecium, VRARE315; E. faecium VRAR E315; read-out: MIC (minimal inhibitory concentration)"}, "[16]": {"system": "B. cepacia SCV 141", "experiment": "MIC / MBC in liquid culture", "assay_type": "cell-based, Burkholderia cepacia", "settings": "Burkholderia cepacia, SCV141, read-out: MIC (minimal inhibitory concentration)", "source_text": "(§2) 7-O-malonyl macrolactin A was not effective against some of the gram-negative bacteria tested by the inventors."}, "[17]": {"system": "B. cepacia WT139", "experiment": "MIC / MBC in liquid culture", "assay_type": "cell-based, Burkholderia cepacia", "settings": "Burkholderia cepacia, read-out: MIC (minimal inhibitory concentration)", "source_text": "as §2"}, "[18]": {"settings": "listed as 7-O-Succinyl-macrolactin A"}}, "data": [{"smiles": "CC1CCCC=CC=CC(O)CC(O)CC=CC=CC(OC(=O)CCC(=O)O)CC=CC=CC(=O)O1", "note": "(stereo not shown) [7-O-succinyl macrolactin A]", "values": [{"measurement": "Inhibition zone", "setting": "[1]", "result": 37, "unit": "mm"}, {"measurement": "Inhibition zone", "setting": "[2]", "result": 38, "unit": "mm"}, {"measurement": "Inhibition zone", "setting": "[3]", "result": 22, "unit": "mm"}, {"measurement": "Inhibition zone", "setting": "[4]", "result": 18, "unit": "mm"}, {"measurement": "Inhibition zone", "setting": "[5]", "result": 12, "unit": "mm"}, {"measurement": "Inhibition zone", "setting": "[6]", "result": "no activity"}, {"measurement": "Inhibition zone", "setting": "[6]; [18]", "result": 0, "unit": "mm"}, {"measurement": "Inhibition zone", "setting": "[7]", "result": 20, "unit": "mm"}, {"measurement": "Inhibition zone", "setting": "[8]", "result": "no activity"}, {"measurement": "Inhibition zone", "setting": "[8]; [18]", "result": 0, "unit": "mm"}, {"measurement": "Inhibition of proliferation", "setting": "[9]; compound concentration 3.9 μg/ml", "result": 0, "unit": "%"}, {"measurement": "Inhibition of proliferation", "setting": "[9]; compound concentration 15.6 μg/ml", "result": 0, "unit": "%"}, {"measurement": "Inhibition of proliferation", "setting": "[9]; compound concentration 31.25 μg/ml", "result": 55, "unit": "%"}, {"measurement": "Inhibition of proliferation", "setting": "[9]; compound concentration 56.5 μg/ml", "result": 83, "unit": "%"}, {"measurement": "Inhibition of proliferation", "setting": "[9]; compound concentration 125 μg/ml", "result": 87, "unit": "%"}]}, {"smiles": "CC1(C)S[C@@H]2[C@H](NC(=O)[C@H](N)c3ccccc3)C(=O)N2[C@H]1C(=O)O", "note": "[Ampicillin, ampicillin]", "values": [{"measurement": "zone of inhibition at 10 µg/disc", "setting": "[1]; Staphylococcus aureus", "result": 0, "unit": "mm"}, {"measurement": "zone of inhibition at 10 µg/disc", "setting": "[2]; Staphylococcus aureus", "result": 0, "unit": "mm"}, {"measurement": "zone of inhibition at 10 µg/disc", "setting": "[3]; Staphylococcus aureus", "result": 41, "unit": "mm"}, {"measurement": "zone of inhibition at 10 µg/disc", "setting": "[4]; Staphylococcus aureus, DSMZ1104", "result": 30, "unit": "mm"}, {"measurement": "zone of inhibition at 10 µg/disc", "setting": "[5]; Enterococcus faecalis, ATCC29212", "result": 32, "unit": "mm"}, {"measurement": "zone of inhibition at 10 µg/disc", "setting": "[6]; Enterococcus faecalis, VRASE305", "result": 35, "unit": "mm"}, {"measurement": "zone of inhibition at 10 µg/disc", "setting": "[7]; Enterococcus faecium, VRARE315", "result": 0, "unit": "mm"}, {"measurement": "zone of inhibition at 10 µg/disc", "setting": "[8]; Burkholderia cepacia, SCV141, MH agar", "result": 0, "unit": "mm"}, {"measurement": "MIC", "setting": "[10]", "result": 0.06, "unit": "µg/mL"}, {"measurement": "MIC", "setting": "[11]", "result": "> 128", "unit": "µg/mL"}, {"measurement": "MIC", "setting": "[12]", "result": 64, "unit": "µg/mL"}, {"measurement": "MIC", "setting": "[13]", "result": 0.5, "unit": "µg/mL"}, {"measurement": "MIC", "setting": "[14]", "result": 0.5, "unit": "µg/mL"}, {"measurement": "MIC", "setting": "[15]", "result": "> 128", "unit": "µg/mL"}, {"measurement": "MIC", "setting": "[16]", "result": 128, "unit": "µg/mL"}, {"measurement": "MIC", "setting": "[17]", "result": "> 128", "unit": "µg/mL"}]}]}
